Source: article PMC10746280, “Bacterial efflux pump modulators prevent bacterial growth in macrophages and under broth conditions that mimic the host environment” (mBio, 2023)

What was measured:
[1] = test system: S. Typhimurium SL1344 (sifB::gfp) in RAW 264.7 macrophages; test: SAFIRE macrophage assay: intracellular bacterial load (GFP signal within macrophages); assay type: cell-based, Salmonella enterica serotype Typhimurium; conditions: 'Toxic' given instead of a score
Text: (§1) In SAFIRE, we used MATLAB software to count the number of macrophages that remain adherent and retain the red fluorescence of MitoTracker, an indicator of voltage across the mitochondrial inner membrane. MATLAB then calculates the signal from bacteria (green fluorescent protein [GFP]) that overlaps with macrophages, as defined by MitoTracker, to estimate bacterial load. […] For example, we observed that the 6-trifluoropyrimidin-2-yl group on the right-hand side of EPM35 is apparently toxic to macrophages. Non-toxic analogs that reduced bacterial load by at least 60% at 5 µM and 25 µM in SAFIRE, as compared with DMSO, progressed and were evaluated in SAFIRE across eight or more concentrations, ranging from 0.001 µM to 50 µM (n = 2). […] Each of the top 13 analogs had at least an eightfold increase in potency and were not toxic for macrophages at 50 µM in the SAFIRE assay (Fig. 1C).
(§2) As previously described ([18]), RAW 264.7 macrophages (between passages 1 and 6) were grown in complete Dulbecco’s modified Eagle’s medium (DMEM) to approximately 70% to 90% confluence, scraped, washed, resuspended, diluted to 5 × 10^4 in 100 µL, and seeded in black, 96-well, glass-bottomed plates (Brooks Life Sciences catalog number MGB096-1-2-LG-L) at 37°C with 5% CO2. Twenty-four hours later, bacteria grown overnight in LB were diluted into 50 µL phosphate buffered saline (PBS) and added to a final concentration of 1 × 10^7 S. Typhimurium SL1344 (sifB::gfp) per milliliter ([78]) for an approximate multiplicity of infection of 30 bacteria per macrophage cell. Forty-five minutes after bacterial addition, gentamicin (Sigma catalog number G1264) was added to a final concentration of 40 µg/mL to inhibit the growth of remaining extracellular bacteria. Two hours after infection, gentamicin-containing medium was removed and replaced with 200 µL fresh DMEM with compound or DMSO (Sigma catalog number 276855) to the stated final concentrations. At 17.5 h after infection, PBS containing MitoTracker Red CMXRos (Life Technologies catalog number M7512), a vital dye for mitochondrial electric potential, was added to a final concentration of 100 nM. At 18 h after infection, 16% paraformaldehyde was added to a final concentration of 4% and incubated at room temperature for 15 min. Cells were washed twice with PBS and stained for 20 min with 1 µM 4′,6-diamidino-2-phenylindole (DAPI), a vital dye for double-stranded DNA, and stored in 90% glycerol in PBS until imaging. Samples were imaged in six fields of view per well using a semiautomated Yokogawa CellVoyager CV1000 confocal scanner system with a 20×, 0.75-numerical aperture (NA) objective. A MATLAB algorithm calculated bacterial accumulation (GFP fluorescence) within macrophages, as defined by DAPI and MitoTracker Red. GFP^+ macrophage area was defined as the number of GFP-positive pixels per macrophage divided by the total number of pixels per macrophage, averaged across all macrophages in the field ([34]).

RAW 264.7 macrophages = test: SAFIRE macrophage assay: host toxicity (adherent macrophage count, morphology); assay type: cell-based
Text: as §1, §2

OC(COc1cccc(Cl)c1)CN1CCC(Nc2nccc(C(F)(F)F)n2)C1 (stereo not shown) [CU085]
5 uM Avg Antibacterial Score [1]: 47 | 25 uM Avg Antibacterial Score [1]: Toxic | 5 uM Avg Cell # Score (RAW 264.7 macrophages): 92 | 25 uM Avg Cell # Score (RAW 264.7 macrophages): 33

OC(COc1ccc(Cl)cc1)CN1CCC(Nc2nccc(C(F)(F)F)n2)C1 (stereo not shown) [CU086]
5 uM Avg Antibacterial Score [1]: 71 | 25 uM Avg Antibacterial Score [1]: Toxic | 5 uM Avg Cell # Score (RAW 264.7 macrophages): 89 | 25 uM Avg Cell # Score (RAW 264.7 macrophages): 27

OC(COc1ccc(Cl)cc1Cl)CN1CCC(Nc2nccc(C(F)(F)F)n2)C1 (stereo not shown) [CU087]
5 uM Avg Antibacterial Score [1]: 36 | 25 uM Avg Antibacterial Score [1]: Toxic | 5 uM Avg Cell # Score (RAW 264.7 macrophages): 98 | 25 uM Avg Cell # Score (RAW 264.7 macrophages): 78

OC(COc1cc(Cl)cc(Cl)c1)CN1CCC(Nc2nccc(C(F)(F)F)n2)C1 (stereo not shown) [CU088]
5 uM Avg Antibacterial Score [1]: 22 | 25 uM Avg Antibacterial Score [1]: Toxic | 5 uM Avg Cell # Score (RAW 264.7 macrophages): 101 | 25 uM Avg Cell # Score (RAW 264.7 macrophages): 98

OC(COc1ccc(Cl)c(Cl)c1)CN1CCC(Nc2nccc(C(F)(F)F)n2)C1 (stereo not shown) [CU089]
5 uM Avg Antibacterial Score [1]: 30 | 25 uM Avg Antibacterial Score [1]: Toxic | 5 uM Avg Cell # Score (RAW 264.7 macrophages): 101 | 25 uM Avg Cell # Score (RAW 264.7 macrophages): 91

CCOC(=O)c1cccc(OCC(O)CN2CCC(Nc3nccc(C(F)(F)F)n3)C2)c1 (stereo not shown) [CU090]
5 uM Avg Antibacterial Score [1]: 70 | 25 uM Avg Antibacterial Score [1]: Toxic | 5 uM Avg Cell # Score (RAW 264.7 macrophages): 91 | 25 uM Avg Cell # Score (RAW 264.7 macrophages): 48

COC(=O)c1ccc(OCC(O)CN2CCC(Nc3nccc(C(F)(F)F)n3)C2)cc1 (stereo not shown) [CU091]
5 uM Avg Antibacterial Score [1]: 97 | 25 uM Avg Antibacterial Score [1]: 9.52 | 5 uM Avg Cell # Score (RAW 264.7 macrophages): 89 | 25 uM Avg Cell # Score (RAW 264.7 macrophages): 95

OC(COc1cccc(C(F)(F)F)c1)CN1CCC(Nc2nccc(C(F)(F)F)n2)C1 (stereo not shown) [CU092]
5 uM Avg Antibacterial Score [1]: 41 | 25 uM Avg Antibacterial Score [1]: Toxic | 5 uM Avg Cell # Score (RAW 264.7 macrophages): 86 | 25 uM Avg Cell # Score (RAW 264.7 macrophages): 72

N#Cc1ccccc1OCC(O)CN1CCC(Nc2nccc(C(F)(F)F)n2)C1 (stereo not shown) [CU093]
5 uM Avg Antibacterial Score [1]: 102 | 25 uM Avg Antibacterial Score [1]: 58 | 5 uM Avg Cell # Score (RAW 264.7 macrophages): 93 | 25 uM Avg Cell # Score (RAW 264.7 macrophages): 79

N#Cc1ccc(OCC(O)CN2CCC(Nc3nccc(C(F)(F)F)n3)C2)cc1 (stereo not shown) [CU094]
5 uM Avg Antibacterial Score [1]: 105 | 25 uM Avg Antibacterial Score [1]: 41 | 5 uM Avg Cell # Score (RAW 264.7 macrophages): 91 | 25 uM Avg Cell # Score (RAW 264.7 macrophages): 71

COc1ccccc1OCC(O)CN1CCC(Nc2nccc(C(F)(F)F)n2)C1 (stereo not shown) [CU095]
5 uM Avg Antibacterial Score [1]: 100 | 25 uM Avg Antibacterial Score [1]: 43 | 5 uM Avg Cell # Score (RAW 264.7 macrophages): 88 | 25 uM Avg Cell # Score (RAW 264.7 macrophages): 83

COc1ccc(OCC(O)CN2CCC(Nc3nccc(C(F)(F)F)n3)C2)cc1 (stereo not shown) [CU096]
5 uM Avg Antibacterial Score [1]: 103 | 25 uM Avg Antibacterial Score [1]: 29 | 5 uM Avg Cell # Score (RAW 264.7 macrophages): 74 | 25 uM Avg Cell # Score (RAW 264.7 macrophages): 92

OC(COc1ccc(F)cc1)CN1CCC(Nc2nccc(C(F)(F)F)n2)C1 (stereo not shown) [CU097]
5 uM Avg Antibacterial Score [1]: 100 | 25 uM Avg Antibacterial Score [1]: 6.44 | 5 uM Avg Cell # Score (RAW 264.7 macrophages): 95 | 25 uM Avg Cell # Score (RAW 264.7 macrophages): 95

OC(COc1ccc(F)cc1F)CN1CCC(Nc2nccc(C(F)(F)F)n2)C1 (stereo not shown) [CU098]
5 uM Avg Antibacterial Score [1]: 92 | 25 uM Avg Antibacterial Score [1]: 12 | 5 uM Avg Cell # Score (RAW 264.7 macrophages): 89 | 25 uM Avg Cell # Score (RAW 264.7 macrophages): 88

OC(COc1ccc2c(c1)OCO2)CN1CCC(Nc2nccc(C(F)(F)F)n2)C1 (stereo not shown) [CU099]
5 uM Avg Antibacterial Score [1]: 104 | 25 uM Avg Antibacterial Score [1]: 25 | 5 uM Avg Cell # Score (RAW 264.7 macrophages): 77 | 25 uM Avg Cell # Score (RAW 264.7 macrophages): 102

CC(=O)Nc1cccc(OCC(O)CN2CCC(Nc3nccc(C(F)(F)F)n3)C2)c1 (stereo not shown) [CU100]
5 uM Avg Antibacterial Score [1]: 105 | 25 uM Avg Antibacterial Score [1]: 110 | 5 uM Avg Cell # Score (RAW 264.7 macrophages): 80 | 25 uM Avg Cell # Score (RAW 264.7 macrophages): 96

OC(COc1cc(Cl)cc(Cl)c1)CN1CCC(Nc2nccc(C(F)(F)F)n2)CC1 (stereo not shown) [CU101]
5 uM Avg Antibacterial Score [1]: 9 | 25 uM Avg Antibacterial Score [1]: Toxic | 5 uM Avg Cell # Score (RAW 264.7 macrophages): 71 | 25 uM Avg Cell # Score (RAW 264.7 macrophages): 73

OC(COc1cccc(Cl)c1)CN1CCC(Nc2nccc(C(F)(F)F)n2)CC1 (stereo not shown) [CU102]
5 uM Avg Antibacterial Score [1]: 18 | 25 uM Avg Antibacterial Score [1]: Toxic | 5 uM Avg Cell # Score (RAW 264.7 macrophages): 82 | 25 uM Avg Cell # Score (RAW 264.7 macrophages): 51

OC(COc1cccc(C(F)(F)F)c1)CN1CCC(Nc2nccc(C(F)(F)F)n2)CC1 (stereo not shown) [CU103]
5 uM Avg Antibacterial Score [1]: 9 | 25 uM Avg Antibacterial Score [1]: Toxic | 5 uM Avg Cell # Score (RAW 264.7 macrophages): 82 | 25 uM Avg Cell # Score (RAW 264.7 macrophages): 71

CCOC(=O)c1cccc(OCC(O)CN2CCC(Nc3nccc(C(F)(F)F)n3)CC2)c1 (stereo not shown) [CU104]
5 uM Avg Antibacterial Score [1]: 13 | 25 uM Avg Antibacterial Score [1]: Toxic | 5 uM Avg Cell # Score (RAW 264.7 macrophages): 98 | 25 uM Avg Cell # Score (RAW 264.7 macrophages): 61

OC(COc1ccccc1F)CN1CCC(Nc2nccc(C(F)(F)F)n2)CC1 (stereo not shown) [CU105]
5 uM Avg Antibacterial Score [1]: 102 | 25 uM Avg Antibacterial Score [1]: 14 | 5 uM Avg Cell # Score (RAW 264.7 macrophages): 79 | 25 uM Avg Cell # Score (RAW 264.7 macrophages): 98

OC(COc1ccccc1C(F)(F)F)CN1CCC(Nc2nccc(C(F)(F)F)n2)CC1 (stereo not shown) [CU106]
5 uM Avg Antibacterial Score [1]: 8 | 25 uM Avg Antibacterial Score [1]: Toxic | 5 uM Avg Cell # Score (RAW 264.7 macrophages): 79 | 25 uM Avg Cell # Score (RAW 264.7 macrophages): 44

OC(COc1cccc(Br)c1)CN1CCC(Nc2nccc(C(F)(F)F)n2)CC1 (stereo not shown) [CU107]
5 uM Avg Antibacterial Score [1]: 10 | 25 uM Avg Antibacterial Score [1]: Toxic | 5 uM Avg Cell # Score (RAW 264.7 macrophages): 90 | 25 uM Avg Cell # Score (RAW 264.7 macrophages): 41

Cc1cccc(OCC(O)CN2CCC(Nc3nccc(C(F)(F)F)n3)CC2)c1 (stereo not shown) [CU108]
5 uM Avg Antibacterial Score [1]: 28 | 25 uM Avg Antibacterial Score [1]: Toxic | 5 uM Avg Cell # Score (RAW 264.7 macrophages): 94 | 25 uM Avg Cell # Score (RAW 264.7 macrophages): 27

OC(COc1c(Cl)cccc1Cl)CN1CCC(Nc2nccc(C(F)(F)F)n2)CC1 (stereo not shown) [CU109]
5 uM Avg Antibacterial Score [1]: 56 | 25 uM Avg Antibacterial Score [1]: Toxic | 5 uM Avg Cell # Score (RAW 264.7 macrophages): 74 | 25 uM Avg Cell # Score (RAW 264.7 macrophages): 44

O=C(CCOc1ccc(Cl)c(Cl)c1)N1CCC(Nc2nccc(C(F)(F)F)n2)CC1 [CU110]
5 uM Avg Antibacterial Score [1]: 107 | 25 uM Avg Antibacterial Score [1]: Toxic | 5 uM Avg Cell # Score (RAW 264.7 macrophages): 79 | 25 uM Avg Cell # Score (RAW 264.7 macrophages): 27

O=C(CCOc1ccc(Cl)c(Cl)c1)N1CCC(Nc2nccc(C(F)(F)F)n2)C1 (stereo not shown) [CU111]
5 uM Avg Antibacterial Score [1]: 106 | 25 uM Avg Antibacterial Score [1]: 104 | 5 uM Avg Cell # Score (RAW 264.7 macrophages): 86 | 25 uM Avg Cell # Score (RAW 264.7 macrophages): 47

OC(COc1ccccc1C(F)(F)F)CN1CCC(Nc2nccc(C(F)(F)F)n2)C1 (stereo not shown) [CU112]
5 uM Avg Antibacterial Score [1]: 47 | 25 uM Avg Antibacterial Score [1]: Toxic | 5 uM Avg Cell # Score (RAW 264.7 macrophages): 88 | 25 uM Avg Cell # Score (RAW 264.7 macrophages): 59
